Test results from patent publication US10758524B2, “Compositions and methods for selectively depleting senescent cells” (BioVentures, LLC, priority 2014, dated 2020).

Experiments:
Type in all cases: cell-based
[1] = tested on: IR-induced senescent WI38 cells; experiment: Cell viability of IR-induced senescent WI38 cells at 72 h (LD50); conditions: for LD50 (IR-senescent): IR-induced senescent WI38 cells; for LD50 (IR-senescent) / Ratio (normal/senescent): Table 1; for Ratio (normal/senescent) / Ratio (NSC/SC): ratio of LD50 values; for IC50: Homo sapiens, WI-38, 72 h, read-out: LD50 IR-senescent cells (SC); for Ratio (NSC/SC): Table 2
Description: (§1) Normal WI38 cells (FIG. 1A), IR-induced senescent cells (FIG. 1B) and replicative senescent cells (FIG. 1C) were incubated with increasing concentrations of PL. At 72 hours post-treatment cell viability was measured. […] IR-induced senescent WI38 cells were treated with 10 μM PL and viable cells were measured at 0, 1, 2, 3, 6, 12, 16, 24, 48 and 72 hours after treatment (FIG. 1D) or the cells were incubated with 10 μM PL for 1, 3, 6, 12, 24, 48 or 72 hours and cell viability was measured at 72 h (FIG. 1E).
(§2) At 72 hours post-treatment cell viability was measured.
(§3) Normal WI38 cells and IR-induced senescent cells were incubated with increasing concentrations of compounds of Formula I and Formula II. At 72 hours post-treatment cell viability was measured and LD50 was calculated.

[2] = tested on: Normal WI38 cells; experiment: Cell viability of normal WI38 cells at 72 h (LD50); conditions: for LD50 (normal): normal WI38 cells, Table 1; for CC50: Homo sapiens, WI-38, 72 h, read-out: LD50 non-senescent cells (NSC)
Description: as §1, §2, §3

[3] = tested on: replicative senescent WI38 cells; experiment: Cell viability of replicative senescent WI38 cells at 72 h (LD50)
Description: as §1

[4] = tested on: IR-induced senescent WI38 cells; experiment: Reactive oxygen species (ROS) measurement after PL treatment; conditions: 10 μM PL, at 24 hours
Description: PL selectively increases ROS in senescent WI38 in a time-dependent manner. Normal (FIG. 2A) and IR-induced senescent WI38 cells (FIG. 2B) were incubated with vehicle (Veh), […] H2O2 for 30 min as a positive control, or 10 μM PL. Reactive oxygen species (ROS) was measured at various times (1, 3, 6, 12, 24 hours) after PL treatment and expressed as percent of control. Data are presented as mean±SE of three independent assays.

SMILES | IC50 [1] | Ratio (NSC/SC) [1] | CC50 [2] | other results
CCCCS(=N)(=O)CCC(N)C(=O)O (stereo not drawn) [Buthionine sulfoximine, reference compound] | – | – | – | LD50 (IR-senescent) [1]: 2391.51 µM; Ratio (normal/senescent) [1]: 1.0; LD50 (normal) [2]: 2340.19 µM
CCCOc1c(OC)cc(/C=C/C(=O)N2CCC=CC2=O)cc1OC [GZ-11719-by] | 47.1 µM | 1.80 | 84.7 µM | –
COc1cc(/C=C/C(=O)N2CCC=CC2=O)cc(OC)c1OCCN(C)CCOc1c(OC)cc(/C=C/C(=O)N2CCC=CC2=O)cc1OC [GZ-11719] | 0.9 µM | 1.80 | 1.62 µM | –
COc1cc(/C=C/C(=O)N2CCCCCC2=O)cc(OC)c1OC [XL-11178A] | > 40 µM | – | > 40 µM | –
COc1cc(/C=C/C(=O)N2CCC=CC2=O)cc(OC)c1OC [PL, 5,6-dihydro-1-[(2E)-1-oxo-3-(3,4,5-trimethoxyphenyl)-2-propenyl]-2(1H)-pyridinone, reference compound] | – | – | – | effect on number of viable cells ([3]; PL as low as 5 μM, 72 hours): significantly reduced the number of viable cells; LD50 (Replicative) ([3]; replicative senescent WI38 cells, Table 1): 6.35 µM; ROS production [4]: significantly increased ROS production; viable cells over time ([1]; 10 μM PL, from 6 hours on, both treatment scenarios): significant reduction in viable cells; LD50 (IR-senescent) [1]: 7.05 µM; effect on number of viable cells ([1]; PL as low as 5 μM, 72 hours): significantly reduced the number of viable cells; Ratio (normal/senescent) [1]: 3.44-3.82; effect on cell viability ([2]; PL up to 10 μM, 72 hours): no significant effect; LD50 (normal) [2]: 24.25 µM
COc1cc(/C=C/C(=O)N2CCC=CC2=O)cc(OC)c1OCCN(C)C [XL-11194] | 4.02 µM | 2.56 | 10.3 µM | –
COc1cc(C#CC(=O)N2CCC=CC2=O)cc(OC)c1OC [XZ-12045] | 4.38 µM | 3.18 | 13.9 µM | –
CC(=O)N[C@@H](CS)C(=O)O [NAC, N-Acetyl-Cysteine, reference compound] | – | – | – | effect on PL induced cell death ([1]; pre-treatment 2 hours (NAC 1 mM; Q-VD-OPh 20 μM), then 10 μM PL 72 h): selectively inhibited PL induced cell death
CC(=O)OC[C@H]1O[C@@H]([S-])[C@H](OC(C)=O)[C@@H](OC(C)=O)[C@@H]1OC(C)=O.CCP(CC)CC.[Au+] [Auranofin, reference compound] | – | – | – | LD50 (IR-senescent) [1]: 5.34 µM; Ratio (normal/senescent) [1]: 1.0; LD50 (normal) [2]: 5.13 µM
O=C(C#Cc1ccccc1)N1CCC=CC1=O [XZ 12040] | 2.4 µM | 2.41 | 5.78 µM | –
COc1cc(/C=C(\C#N)C(=O)N2CCC=CC2=O)cc(OC)c1OC [XZ-12052] | 41 µM | 1.95 | 80 µM | –
O=C1C=CCCN1C(=O)/C=C/c1ccccc1C(F)(F)F [XZ-12047] | 10.8 µM | 2.03 | 21.9 µM | –
COc1cc(/C=C(\Br)C(=O)N2CCC=CC2=O)c(Br)c(OC)c1OC [GZ-11734] | 1.39 µM | 5.14 | 7.16 µM | –
CCCCCCCCCC[P+](c1ccccc1)(c1ccccc1)c1ccccc1 [Decyl-triphenylphosphonium, reference compound] | – | – | – | LD50 (IR-senescent) [1]: 0.98 µM; Ratio (normal/senescent) [1]: 1.4; LD50 (normal) [2]: 1.41 µM
C=C1CCCN(S(=O)(=O)/C=C/c2ccccc2)C1=O [XZ-12107] | 4.77 µM | 5.02 | 24 µM | –
